The first test has as its target N-type calcium channels (chick cortical synaptosomes) (Gallus gallus, UniProt A0A8V1AJW5). Description: 45Ca-uptake/influx into chick cortical synaptosomes (K+ depolarization, 30 mM K+). The format is biochemical. Conditions: 30 mM K+ minus 4 mM K+, 10 sec influx, 37° C., pH 7.4, read-out: IC50 (concentration of test substance which inhibits the specific uptake of 45Ca by 50%).
N-type calcium channels (chick cortical synaptosomes), sequence (A0A8V1AJW5 1-2349): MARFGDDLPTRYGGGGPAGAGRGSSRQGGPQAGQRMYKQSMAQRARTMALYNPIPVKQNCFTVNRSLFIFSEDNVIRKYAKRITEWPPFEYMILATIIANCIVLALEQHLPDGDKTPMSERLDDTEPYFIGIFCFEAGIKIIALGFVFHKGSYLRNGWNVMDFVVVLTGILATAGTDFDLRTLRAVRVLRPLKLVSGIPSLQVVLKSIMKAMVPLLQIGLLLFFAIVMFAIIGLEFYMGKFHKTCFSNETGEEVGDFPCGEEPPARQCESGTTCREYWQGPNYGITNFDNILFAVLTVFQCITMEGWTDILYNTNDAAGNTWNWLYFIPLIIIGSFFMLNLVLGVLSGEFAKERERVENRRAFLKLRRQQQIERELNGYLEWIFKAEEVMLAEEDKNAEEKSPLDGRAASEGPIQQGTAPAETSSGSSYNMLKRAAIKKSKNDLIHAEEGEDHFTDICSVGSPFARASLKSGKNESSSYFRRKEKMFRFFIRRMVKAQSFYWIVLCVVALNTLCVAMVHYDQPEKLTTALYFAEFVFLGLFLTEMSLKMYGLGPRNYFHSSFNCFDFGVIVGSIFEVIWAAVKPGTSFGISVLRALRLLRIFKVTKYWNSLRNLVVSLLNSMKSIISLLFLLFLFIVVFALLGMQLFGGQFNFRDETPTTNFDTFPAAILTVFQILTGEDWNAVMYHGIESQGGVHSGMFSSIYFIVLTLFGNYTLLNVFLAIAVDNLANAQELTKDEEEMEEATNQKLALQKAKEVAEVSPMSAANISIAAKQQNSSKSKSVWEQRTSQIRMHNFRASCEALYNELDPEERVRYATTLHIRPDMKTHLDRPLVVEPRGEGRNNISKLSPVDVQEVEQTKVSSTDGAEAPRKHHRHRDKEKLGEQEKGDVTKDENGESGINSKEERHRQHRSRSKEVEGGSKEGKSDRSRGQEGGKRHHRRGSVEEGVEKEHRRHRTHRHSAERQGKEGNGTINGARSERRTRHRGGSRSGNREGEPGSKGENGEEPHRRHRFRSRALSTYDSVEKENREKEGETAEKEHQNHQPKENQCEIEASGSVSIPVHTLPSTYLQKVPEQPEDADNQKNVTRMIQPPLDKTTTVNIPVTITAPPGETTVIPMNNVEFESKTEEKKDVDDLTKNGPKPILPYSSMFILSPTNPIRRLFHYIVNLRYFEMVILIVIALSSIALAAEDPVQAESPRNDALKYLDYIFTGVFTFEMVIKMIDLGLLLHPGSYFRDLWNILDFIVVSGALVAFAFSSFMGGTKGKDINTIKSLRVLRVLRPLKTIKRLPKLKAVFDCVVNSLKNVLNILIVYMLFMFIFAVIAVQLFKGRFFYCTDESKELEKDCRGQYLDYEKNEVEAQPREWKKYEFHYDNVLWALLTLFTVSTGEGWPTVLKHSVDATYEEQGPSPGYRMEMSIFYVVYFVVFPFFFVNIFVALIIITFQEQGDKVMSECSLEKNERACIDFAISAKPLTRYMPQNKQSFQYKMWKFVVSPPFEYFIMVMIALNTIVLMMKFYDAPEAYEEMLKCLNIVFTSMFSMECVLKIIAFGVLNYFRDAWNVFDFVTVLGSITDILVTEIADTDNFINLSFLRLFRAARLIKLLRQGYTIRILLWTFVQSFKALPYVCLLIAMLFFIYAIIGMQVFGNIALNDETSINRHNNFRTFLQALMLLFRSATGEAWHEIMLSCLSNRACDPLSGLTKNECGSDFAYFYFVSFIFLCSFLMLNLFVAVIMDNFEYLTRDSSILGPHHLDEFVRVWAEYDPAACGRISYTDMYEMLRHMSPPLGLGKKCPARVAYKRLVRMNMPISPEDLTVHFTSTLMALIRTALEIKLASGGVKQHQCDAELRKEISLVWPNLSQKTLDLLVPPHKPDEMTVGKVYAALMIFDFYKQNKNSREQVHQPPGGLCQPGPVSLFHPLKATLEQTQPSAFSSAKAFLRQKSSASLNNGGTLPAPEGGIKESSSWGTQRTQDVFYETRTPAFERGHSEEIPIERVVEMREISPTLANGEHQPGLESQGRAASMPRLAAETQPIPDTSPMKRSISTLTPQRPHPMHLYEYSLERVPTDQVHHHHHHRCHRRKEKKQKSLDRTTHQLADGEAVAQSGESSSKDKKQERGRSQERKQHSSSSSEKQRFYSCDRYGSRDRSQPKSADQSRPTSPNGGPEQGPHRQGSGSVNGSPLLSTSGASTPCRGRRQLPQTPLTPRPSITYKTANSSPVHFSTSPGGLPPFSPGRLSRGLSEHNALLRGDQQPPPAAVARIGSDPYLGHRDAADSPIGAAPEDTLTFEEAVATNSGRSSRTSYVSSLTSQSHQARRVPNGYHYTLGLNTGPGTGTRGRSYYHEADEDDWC
In the case of `CCCCCN1CC[C@@H](SCc2ccc(Cl)cc2)[C@H](OCCOC)C1` (racemic) [(±)-trans-4-[(4-chlorobenzyl)thio]-3-(2-methoxy-1-ethoxy)-N-pentylpiperidine], the IC50 amounted to 1 µM. The same measure, in the same setting: the result for `CCCCCN1CC[C@@H](Oc2ccccc2OCc2ccccc2)[C@H](OCCOC)C1` (racemic) [(±)-trans-4-[(2-benzyloxyphenoxy)]-3-(2-methoxy-1-ethoxy)-N-pentylpiperidine] reads 0.9 µM; that for `CCCCCN1CC[C@@H](CCN(c2ccccc2)c2ccccc2)[C@H](OC)C1` (racemic) [(±)-trans-4-[2-(N,N-diphenylamino)ethyl]-3-methoxy-N-pentylpiperidine], 1.3 µM; that for `CCCCCN1CC[C@@H](CCOc2ccc(Cl)c(Cl)c2)[C@H](OC(C)=O)C1` (racemic) [(±)-trans-4-[2-(3,4-Dichlorophenoxy)-ethyl]-3-acetoxy-N-pentylpiperidine], 0.5 µM. Still for that read-out and setting: for `CCCCCN1CC[C@@H](CCN(c2ccccc2)c2ccccc2)[C@H](OCCOC)C1` (racemic) [(±)-trans-4-[2-(N,N-diphenylamino)ethyl]-3-(2-methoxy-1-ethoxy)-N-pentylpiperidine] the value was 0.5 µM; for `CCCCCN1CC[C@@H](CCOc2cccc(OC(C)C)c2)[C@H](OCCOC)C1` (racemic) [(±)-trans-4-[2-(3-isopropoxyphenoxy)ethyl]-3-(2-methoxy-1-ethoxy)-N-pentylpiperidine], 1.1 µM. The same measure, in the same setting: the result for `CCCCCN1CC[C@H](CCOc2ccccc2Cc2ccccc2)[C@H](OC)C1` (racemic) [(±)-cis-4-[2-(2-benzylphenoxy)ethyl]-3-methoxy-N-pentylpiperidine] reads 0.9 µM; that for `CCCCCN1CC[C@@H](CCOc2ccc(Cl)c(Cl)c2)[C@H](OC)C1` (racemic) [(±)-trans-4-[2-(3,4-Dichlorophenoxy)-ethyl]-3-methoxy-N-pentylpiperidine], 0.7 µM. Take `CCCCCN1CC[C@@H](CCOc2ccc(Cl)c(Cl)c2)[C@@H](OCCOC)C1` (relative stereo) [(±)-cis-4-[2-(3,4-Dichlorophenoxy)-ethyl]-3-(2-methoxy)-ethoxy-N-pentylpiperidine]: the IC50 is 0.3 µM. The same measure, in the same setting: for `CCCCCN1CC[C@@H](CCOc2ccccc2Cc2ccccc2)[C@H](OC)C1` (racemic) [(±)-trans-4-[2-(2-benzylphenoxy)ethyl]-3-methoxy-N-pentylpiperidine] the value was 0.6 µM; for `CCCCCN1CC[C@H](CCOc2cccc(C)c2C)[C@H](OC)C1` (racemic) [(±)-cis-4-[2-(2,3-Dimethylphenoxy)-ethyl]-3-methoxy-N-pentylpiperidine], 0.9 µM. Same read-out and setting: the result for `CCCCCN1CC[C@H](CCN(c2ccccc2)c2ccccc2)[C@H](OC)C1` (racemic) [(±)-cis-4-[2-(N,N-diphenylamino)ethyl]-3-methoxy-N-pentylpiperidine] reads 1.1 µM; that for `CCCCCN1CC[C@H](CCOc2ccccc2-c2ccccc2)[C@H](OC)C1` (racemic) [(±)-cis-4-[2-(2-phenylphenoxy)ethyl]-3-methoxy-N-pentylpiperidine], 1 µM. Consider `CCCCCN1CC[C@@H](Oc2ccc(Oc3ccccc3)cc2)[C@H](OCCOC)C1` (racemic) [(±)-trans-4-[4-phenoxyphenoxy]-3-(2-methoxy-1-ethoxy)-N-pentylpiperidine], for which the IC50 turned out to be 0.62 µM. Still for that read-out and setting: for `CCCCCN1CC[C@H](CCOc2ccc(Cl)c(Cl)c2)[C@@H](OCCOC)C1` (relative stereo) [(±)-trans-4-[2-(3,4-Dichlorophenoxy)-ethyl]-3-(2-methoxy)-ethoxy-N-pentylpiperidine] the value was 0.4 µM.

System in another test: not given
Assay: not given
Conditions: drugs that act at both sodium and calcium channels; result in words; cited from earlier work.
Consider `COc1ccc(CN2CCN(C(c3ccc(F)cc3)c3ccc(F)cc3)CC2)c(OC)c1OC` [Lomerizine], for which the “anti-ischaemic activity in animal models” value was “powerful anti-ischaemic activity”. On to Lanodipine, for which the “anti-ischaemic activity in animal models” value is listed as “powerful anti-ischaemic activity”.

Regarding `Cc1ccc(-c2nc(C)c(CN3CCN(C(c4ccccc4)c4ccccc4)CC3)[nH]2)cc1` [Lifarizine], the “anti-ischaemic activity in animal models” value was “powerful anti-ischaemic activity”.

(Values after patent publication US5981539A, “Piperidine compounds as calcium channel blockers” (Neurosearch A/S, priority 1995, dated 1999).)
